# Measured values as given in article PMC6264390, “Design, Synthesis and Structure-activity Studies of Rhodanine Derivatives as HIV-1 Integrase Inhibitors” (Molecules, 2010).
# Read-outs that look alike come from different tables or passages of the source.
# Experiments:
# [1] = test system: IN; set-up: method as in PMID 15634005; details: cited from earlier work
# [2] = target: T1, human apurinic/apyrimidinic endonuclease 1 (APE1) (Homo sapiens, UniProt P27695); experiment: APE1 inhibition assay; format: biochemical; details: for APE1 inhibition (in words): at 100 μM; for IC50: read-out: Inhibition of APE1 catalytic activity IC50
# T1 construct: His; made in house
# Outline: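 His-tagged APE1 (0.05 nM) preincubated with compound 10 min at 30 °C in MOPS pH 7.2 buffer with 7.5 mM MnCl2 and 10% DMSO, then 200 nM 5′-32P-labelled abasic (THF) duplex added for 10 min. Incision products resolved on denaturing gel, phosphorimaged; IC50 from %I versus log concentration.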
# [3] = test system: HIV-1; experiment: MT-4 cell infectivity assay; format: cell-based; details: MT-4 cells
# [4] = target: T2, HIV-1 IN (Human immunodeficiency virus type 1 group M subtype B, UniProt P12497); experiment: In vitro IN inhibition assay (3’-processing and strand transfer); format: biochemical
# T2 construct: pre-incubated with purified recombinant IN (at a final concentration of 200 nM); made in house
# Outline: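 Recombinant HIV-1 IN (200 nM) preincubated with compound 30 min at 30 °C in MnCl2-containing buffer (MgCl2 plus PEG for Mg2+ format), then 1 h with 20 nM 5'-32P-labeled 21-mer duplex. 3'-processing and strand-transfer products resolved on denaturing gels, phosphorimager-quantified; IC50 from log-concentration versus % inhibition.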
# [5] = Mn2+ cofactor (7.5 mM MnCl2), read-out: Inhibition of IN catalytic activity IC50, 3’-Processing
# [6] = Mn2+ cofactor (7.5 mM MnCl2), read-out: Inhibition of IN catalytic activity IC50, Strand Transfer
# T1 sequence (P27695 whole entry): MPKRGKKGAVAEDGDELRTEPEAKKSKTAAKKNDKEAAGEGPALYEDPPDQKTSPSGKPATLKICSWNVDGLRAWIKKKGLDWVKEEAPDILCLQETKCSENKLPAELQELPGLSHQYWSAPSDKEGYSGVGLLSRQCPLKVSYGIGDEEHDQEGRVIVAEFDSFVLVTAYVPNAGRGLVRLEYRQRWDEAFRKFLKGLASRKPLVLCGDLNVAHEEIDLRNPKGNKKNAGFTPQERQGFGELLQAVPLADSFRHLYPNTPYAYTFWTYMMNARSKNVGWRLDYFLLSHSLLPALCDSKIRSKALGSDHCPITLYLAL
SMILES,"IC50 ([1]; read-out: IC50, 3’-processing) [µM]","IC50 ([1]; read-out: IC50, strand transfer) [µM]",APE1 inhibition (in words) [2],IC50 [2] [µM],antiviral activity against HIV-1 [3],"IC50 [4, 5] [µM]","IC50 [4, 6] [µM]",melting point [°C],selectivity for IN than APE1 ([4]; IN versus APE1) [fold],"IC50 ([4]; in the presence of Mg^2+ as the cofactor, read-out: Inhibition of IN catalytic activity IC50, 3’-Processing, Mg2+ (converted)) [µM]","IC50 ([4]; in the presence of Mg^2+ as the cofactor, read-out: Inhibition of IN catalytic activity IC50, Strand Transfer, Mg2+ (converted)) [µM]"
O=C(O)c1ccc(N2C(=O)/C(=C/c3ccccc3)SC2=S)cc1 [Compound 1],15,11,–,–,–,–,–,–,–,–,–
"O=C(Nc1ccc(O)cc1)C(=S)NN1C(=O)C(=Cc2cc(N=Nc3ccccc3)ccc2O)SC1=S [Compound 48, N-(4-hydroxyphenyl)-2-[(5-{2-hydroxy-5-[(E)-phenyldiazenyl]benzylidene}-4-oxo-2-thioxo-1,3-thiaz-olidin-3-yl)amino]-2-thioxoacetamide]",–,–,did not show any significant APE1 inhibition,> 100,did not show any significant antiviral activity,17 ± 7,8 ± 2,145 to 146,–,–,–
"O=C(Nc1ccc(O)cc1)C(=S)NN1C(=O)C(=Cc2cc(Cl)cc(Cl)c2O)SC1=S [Compound 50, 2-{[5-(3,5-Dichloro-2-hydroxybenzylidene)-4-oxo-2-thioxo-1,3-thiazolidin-3-yl]amino}-N-(4-hydroxy-phenyl)-2-thioxoacetamide]",–,–,–,> 100,–,60,55,217 to 218,–,–,–
"O=C(Nc1ccc(O)cc1)C(=S)NN1C(=O)C(=Cc2cc(Br)cc(Br)c2O)SC1=S [Compound 51, 2-{[5-(3,5-Dibromo-2-hydroxybenzylidene)-4-oxo-2-thioxo-1,3-thiazolidin-3-yl]amino}-N-(4-hydroxy-phenyl)-2-thioxoacetamide]",–,–,did not show any significant APE1 inhibition,> 100,did not show any significant antiviral activity,28 ± 1,21 ± 7,189 to 190,–,–,–
"COc1cc(Br)cc(C=C2SC(=S)N(NC(=S)C(=O)Nc3ccc(O)cc3)C2=O)c1O [Compound 52, 2-{[5-(5-Bromo-2-hydroxy-3-methoxybenzylidene)-4-oxo-2-thioxo-1,3-thiazolidin-3-yl]amino}-N-(4-hydroxyphenyl)-2-thioxoacetamide]",–,–,–,> 100,–,38 ± 27,23 ± 9,176 to 177,–,–,–
"O=C(Nc1ccc(O)cc1)C(=S)NN1C(=O)C(=Cc2cc(I)cc(I)c2O)SC1=S [Compound 53, 2-{[5-(2-Hydroxy-3,5-diiodobenzylidene)-4-oxo-2-thioxo-1,3-thiazolidin-3-yl]amino}-N-(4-hydroxy-phenyl)-2-thioxoacetamide]",–,–,–,62 ± 3,did not show any significant antiviral activity,7 ± 3,3 ± 2,157 to 158,20,12.5,11
